The target of experiment [1] is NADH:ubiquinone oxidoreductase (complex I), LtP‐Mit (Leishmania tarentolae, UniProt A0A640KJ43+P15576+Q34939). As to the kind of experiment: NADH:ubiquinone oxidoreductase (complex I) activity in LtP‐Mit, DCPIP. The experiment is classed as biochemical. As to conditions: for IC50: read-out: IC50 Complex I LtP‐Mit. The protocol: NADH:ubiquinone oxidoreductase (complex I) and succinate:ubiquinone oxidoreductase (complex II) activities were determined in 96 well‐plates using DCPIP as the electron acceptor. In each well, 200 μl of premix containing buffer (250 mM sucrose, 20 mM triethanolamine, and 1 mM EDTA, pH 7.4), DCPIP (60 μM), BSA (3.5 mg/ml for complex I and 1 mg/ml for complex II), idebenone (50 μM), and LtP‐Mit (complex I 0.17 μg/ml protein and complex II: 51 μg/ml protein) or BH‐SMP (complexes I and II: 8 μg/ml protein) were added. In addition, in the first wells, 97 μl of premix and 3 μl of EO compounds were added. Then six serial 1:3 dilutions were carried out transferring 100 μl in each step. The reaction was started by adding 50 μl of start‐mix per well, giving final concentrations of KCN (1 mM), for complex I:NADH (300 μM) or complex II:succinate (4 mM). After start of the reaction, images of the plates were recorded with a Canon EOS 300D camera (PLReader software, red–green channel) each 10 min for LtP‐Mit and 3 min for BH‐SMP (20 absorbance measurements). For each EO compound, percentage of inhibition was obtained with respect to controls (set to 100%) treated with maximum volume of vehicle (DMSO) introduced by test compound stocks.

Experiment [2] has as its system Leishmania tarentolae promastigotes (LtP). In words: Oxygen consumption of LtP, Clark-type electrode (immediate effect). The experiment is classed as cell-based. Particulars: 10-200 μM tested. On the procedure:
Direct inhibitors of mitochondrial ETC instantaneously influence mitochondrial oxygen consumption. To assay the effect of EO compounds on oxygen consumption of LtP, a Clark‐type oxygen electrode (Hansatech, Germany) and software MCREC were used. LtP at approximately 10^8 cells/ml in YEM (25 °C) were added and treated with increasing concentrations of EO compounds between 10 and 200 μM and for EO 5.6–89.6 μg/ml. Each concentration was assayed in quadruplicates, and the results were expressed as percentage of oxygen consumption in comparison with the untreated control LtP. The highest concentration of the vehicle (1% DMSO) caused only 2% inhibition. The uncoupling effect in short‐term and long‐term (0, 6, and 24 hr) incubations with Asc (200 μM) was studied in Oligo‐inhibited (5 μM) and uncoupler‐stimulated (0.5 μM CCCP) LtP in Schneider's medium supplemented with 6 μM hemin. Four replicates were performed for each concentration.

Experiment [3] has the same test system. As to the kind of experiment: Viability of LtP treated with EO main components (resazurin). Type of experiment: cell-based. On the procedure:
LtP (200 μl, 2 × 10^6 parasites/ml) in YEM/phosphate‐buffered saline (PBS; 1:1 vol/vol, including antibiotics and 6 μM hemin) were distributed in 96‐well plates (nontreated plates). Compound stocks (in DMSO, max. 2% final concentration) were added, and five 1:3 serial dilutions were performed. Control rows with YEM/PBS (no activity) and with untreated LtP (vehicle, DMSO; 100% activity) were loaded, and the plate was incubated at 26 °C for 48 hr. Then resazurin (50 μl in PBS) was added (20 μM final concentration), and after 4 hr of incubation at 26 °C, the fluorescence of […] was measured at 560 nm excitation and 590 nm emission using a plate reader (PerkinElmer Enspire, Germany). Each compound was tested in triplicate.
A general note: Alamar Blue is a resazurin reagent that responds to reducing activity.

Experiment [4] has as its target T1, cytochrome bc 1 complex purified from Bos taurus (Bos taurus, UniProt P00125+P00157+P13272).
T1 construct: from tissue; host or cells: Native complex purified in house from bovine heart submitochondrial particles (Triton X-100, hydroxyapatite)
As to the kind of experiment: dUQH2:cyt c3+ oxidoreductase activity of isolated BH‐bc 1. The experiment is classed as biochemical. On the procedure: Cytochrome bc 1 complex was obtained from ScY‐SMP and BH‐SMP following published methodology (Geier, Schägger, Brandt, Colson, & von Jagow, 1992) with minor modifications as described below. SMP were resuspended in 1.1% Triton X‐100 and […] phenylmethylsulfonyl fluoride, pH 7.2, and centrifuged for 1 hr at 100,000 g. The bc 1 complex in the sediment was solubilized with 2.2% Triton X‐100, 600 mM NaCl, 10 mM KH2PO4, and 10 mM EDTA, pH 7.2. After centrifugation at 100,000 g for 1 hr, the supernatant was mixed with 50 ml of hydroxyapatite, equilibrated with 0.5% Triton X‐100, 250 mM NaCl, and 100 mM NaHPO4, pH 7.2. After washing the hydroxyapatite with 50 ml of equilibration buffer ([…], 100 mM NaHPO4, and 250 mM NaCl), the bc 1 complexes from ScY‐SMP and BH‐SMP (ScY‐bc 1 and BH‐bc 1, respectively) were eluted from hydroxyapatite with 250 mM KH2PO4 and 0.25% Triton X‐100, pH 7.2, and stored in liquid nitrogen.
To measure the ubiquinol:cyt c ^3+ oxidoreductase (complex III) activity, the reduction of 100 μM cyt c ^3+ at 550 nm using 540 nm as reference was monitored in the presence of the artificial substrate decylubiquinol (dUQH2, 75 μM), which was prepared from dUQ by reduction (Müllebner et al., 2010). The dUQH2:cyt c ^3+ oxidoreductase activities of 40 μg protein/ml of LtP‐Mit or 3.2 μg protein/ml of BH‐SMP were measured in 1 ml of buffer containing 250 mM sucrose, 50 mM KH2PO4, 0.2 mM EDTA (pH 7.2), 2 mM KCN, and 4 mM NaN3. Respective EO compounds were added 50 s after starting the time scan, and the reaction was started after 100 s with dUQH2 and was monitored for additional 150 s. The activity of noninhibited dUQH2:cyt c ^3+ oxidoreductase activity was measured in the presence of the vehicle for the respective inhibitor (DMSO). All inhibitor concentrations were tested in triplicate. The reduction rates for cyt c ^3+ were calculated from the time trace of the absorption difference at 550 − 540 nm (ε550–540 nm = 19 mmol^−1 L cm^−1). […] Three replicates were measured for each concentration. […]

In experiment [5] the target is T2, ubiquinol:cytochrome c oxidoreductase (complex III), BH‐SMP (Bos taurus, UniProt P00125+P00157+P13272).
T2 construct: from tissue; host or cells: bovine heart submitochondrial particles (BH-SMP)
As to the kind of experiment: dUQH2:cyt c3+ oxidoreductase (complex III) activity in BH‐SMP. Type of experiment: biochemical, bovine. The protocol: (§1) To measure the ubiquinol:cyt c ^3+ oxidoreductase (complex III) activity, the reduction of 100 μM cyt c ^3+ at 550 nm using 540 nm as reference was monitored in the presence of the artificial substrate decylubiquinol (dUQH2, 75 μM), which was prepared from dUQ by reduction (Müllebner et al., 2010). The dUQH2:cyt c ^3+ oxidoreductase activities of 40 μg protein/ml of LtP‐Mit or 3.2 μg protein/ml of BH‐SMP were measured in 1 ml of buffer containing 250 mM sucrose, 50 mM KH2PO4, 0.2 mM EDTA (pH 7.2), 2 mM KCN, and 4 mM NaN3. Respective EO compounds were added 50 s after starting the time scan, and the reaction was started after 100 s with dUQH2 and was monitored for additional 150 s. The activity of noninhibited dUQH2:cyt c ^3+ oxidoreductase activity was measured in the presence of the vehicle for the respective inhibitor (DMSO). All inhibitor concentrations were tested in triplicate. The reduction rates for cyt c ^3+ were calculated from the time trace of the absorption difference at 550 − 540 nm (ε550–540 nm = 19 mmol^−1 L cm^−1). Reduction rates in the presence of DMSO (maximum amount that was introduced by test compound stocks) were set to 100%, and the remaining activities in the presence of EO compounds were expressed in %. Three replicates were measured for each concentration.

Experiment [6] has as its target ubiquinol:cytochrome c oxidoreductase (complex III), LtP‐Mit (Leishmania tarentolae, UniProt A0A640KA58+A0A640KYQ2+P14548). In words: dUQH2:cyt c3+ oxidoreductase (complex III) activity in LtP‐Mit. Type of experiment: biochemical. The protocol: as §1
Where [7] appears, read: 48 hr at 26 °C, resazurin, n = 3, read-out: IC50, viability of LtP.
Where [8] appears, read: immediate inhibition, five experiments, read-out: IC50 ± SD BH‐bc 1.
The mark [9] stands for this setting: read-out: IC50 Complex III BH‐SMP.
[10] abbreviates: mean ± SD, three experiments, read-out: IC50 Complex III LtP‐Mit.

Read-outs that look alike come from different tables or passages of the source.

Sequence of NADH:ubiquinone oxidoreductase (complex I), LtP‐Mit (Q7M3U1 entry or part of it): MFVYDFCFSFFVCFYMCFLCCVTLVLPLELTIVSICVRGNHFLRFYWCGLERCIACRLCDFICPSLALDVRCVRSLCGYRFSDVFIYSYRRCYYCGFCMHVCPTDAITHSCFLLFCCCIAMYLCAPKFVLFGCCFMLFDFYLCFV
Sequence of NADH:ubiquinone oxidoreductase (complex I), LtP‐Mit (P15576 whole entry): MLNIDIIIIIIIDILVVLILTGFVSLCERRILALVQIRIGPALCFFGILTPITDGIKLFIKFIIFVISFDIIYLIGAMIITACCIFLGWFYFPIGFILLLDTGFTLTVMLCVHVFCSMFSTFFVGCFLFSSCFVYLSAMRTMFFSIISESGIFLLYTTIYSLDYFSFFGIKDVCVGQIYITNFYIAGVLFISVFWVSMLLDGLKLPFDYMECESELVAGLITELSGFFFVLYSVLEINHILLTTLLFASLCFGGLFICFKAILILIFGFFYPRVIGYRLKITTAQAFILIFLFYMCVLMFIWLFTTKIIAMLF
Sequence of NADH:ubiquinone oxidoreductase (complex I), LtP‐Mit (A0A640K8W3 entry or part of it, further chain): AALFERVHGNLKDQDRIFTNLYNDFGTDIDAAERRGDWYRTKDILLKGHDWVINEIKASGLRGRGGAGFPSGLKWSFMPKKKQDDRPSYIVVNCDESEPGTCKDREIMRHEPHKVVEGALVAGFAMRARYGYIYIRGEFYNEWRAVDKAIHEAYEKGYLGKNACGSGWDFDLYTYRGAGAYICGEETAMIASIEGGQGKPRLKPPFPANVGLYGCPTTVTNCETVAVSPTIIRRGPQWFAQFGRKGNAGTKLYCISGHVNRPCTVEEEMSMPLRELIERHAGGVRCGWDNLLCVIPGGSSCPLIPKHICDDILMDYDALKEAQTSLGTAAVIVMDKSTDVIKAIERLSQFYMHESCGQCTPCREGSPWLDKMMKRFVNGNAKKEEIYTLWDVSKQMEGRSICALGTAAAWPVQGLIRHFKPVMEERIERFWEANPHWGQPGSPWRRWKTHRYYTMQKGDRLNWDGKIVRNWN
Sequence of NADH:ubiquinone oxidoreductase (complex I), LtP‐Mit (P15583 whole entry, further chain): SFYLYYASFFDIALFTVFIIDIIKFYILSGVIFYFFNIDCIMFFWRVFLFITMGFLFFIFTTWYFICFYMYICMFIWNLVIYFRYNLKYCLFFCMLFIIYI
Sequence of NADH:ubiquinone oxidoreductase (complex I), LtP‐Mit (Q34939 entry or part of it): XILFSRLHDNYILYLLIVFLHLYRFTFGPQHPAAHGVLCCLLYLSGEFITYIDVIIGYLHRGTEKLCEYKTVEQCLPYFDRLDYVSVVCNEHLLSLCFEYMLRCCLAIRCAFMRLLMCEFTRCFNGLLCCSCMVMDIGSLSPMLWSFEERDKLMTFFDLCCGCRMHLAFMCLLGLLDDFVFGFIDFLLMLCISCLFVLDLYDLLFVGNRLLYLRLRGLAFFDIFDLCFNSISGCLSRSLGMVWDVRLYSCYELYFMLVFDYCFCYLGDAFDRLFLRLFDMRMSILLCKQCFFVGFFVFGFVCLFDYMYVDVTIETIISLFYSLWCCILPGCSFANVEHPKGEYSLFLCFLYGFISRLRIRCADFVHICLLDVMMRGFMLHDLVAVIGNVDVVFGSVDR
Sequence of NADH:ubiquinone oxidoreductase (complex I), LtP‐Mit (A0A640KJ43 entry or part of it): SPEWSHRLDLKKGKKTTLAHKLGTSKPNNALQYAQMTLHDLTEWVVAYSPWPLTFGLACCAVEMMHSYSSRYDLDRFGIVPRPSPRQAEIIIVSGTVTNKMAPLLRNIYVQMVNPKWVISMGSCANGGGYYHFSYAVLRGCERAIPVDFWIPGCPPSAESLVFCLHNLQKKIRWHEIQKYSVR
Sequence of ubiquinol:cytochrome c oxidoreductase (complex III), LtP‐Mit (P14548 whole entry): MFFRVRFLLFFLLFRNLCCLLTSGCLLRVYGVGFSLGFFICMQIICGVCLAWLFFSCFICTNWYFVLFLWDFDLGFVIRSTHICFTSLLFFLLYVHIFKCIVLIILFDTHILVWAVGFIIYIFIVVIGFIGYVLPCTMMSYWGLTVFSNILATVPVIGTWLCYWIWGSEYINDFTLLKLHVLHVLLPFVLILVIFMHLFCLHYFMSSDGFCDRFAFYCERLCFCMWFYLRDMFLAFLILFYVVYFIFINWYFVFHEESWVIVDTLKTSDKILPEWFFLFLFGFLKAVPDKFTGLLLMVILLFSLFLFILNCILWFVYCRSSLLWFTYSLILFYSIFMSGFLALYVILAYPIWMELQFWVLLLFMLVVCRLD
Sequence of ubiquinol:cytochrome c oxidoreductase (complex III), LtP‐Mit (A0A640KA58 entry or part of it): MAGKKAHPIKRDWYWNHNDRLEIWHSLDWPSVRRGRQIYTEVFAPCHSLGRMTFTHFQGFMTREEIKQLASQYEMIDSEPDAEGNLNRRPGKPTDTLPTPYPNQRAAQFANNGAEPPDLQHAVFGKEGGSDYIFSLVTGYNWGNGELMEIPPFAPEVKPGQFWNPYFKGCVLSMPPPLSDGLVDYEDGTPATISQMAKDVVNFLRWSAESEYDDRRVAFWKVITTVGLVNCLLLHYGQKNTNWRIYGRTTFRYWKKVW
Sequence of ubiquinol:cytochrome c oxidoreductase (complex III), LtP‐Mit (A0A640KYQ2 entry or part of it): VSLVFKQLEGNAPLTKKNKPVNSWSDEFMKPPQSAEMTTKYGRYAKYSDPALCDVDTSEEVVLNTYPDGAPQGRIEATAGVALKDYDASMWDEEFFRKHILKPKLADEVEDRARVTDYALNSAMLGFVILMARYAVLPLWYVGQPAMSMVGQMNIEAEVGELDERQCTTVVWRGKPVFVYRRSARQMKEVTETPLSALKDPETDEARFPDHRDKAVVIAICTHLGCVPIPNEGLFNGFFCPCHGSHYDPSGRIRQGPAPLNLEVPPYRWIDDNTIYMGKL

Turning to `C=C1CC[C@H]2O[C@]2(C)CC[C@@H]2[C@@H]1CC2(C)C` [Caryo, caryophyllene oxide], in experiment [1], the “% of inhibition at highest concentration tested, Complex I LtP‐Mit” value (“% of inhibition … Complex I LtP‐Mit” below) is recorded as 7.2%. In addition, the IC50 in experiment [1] is > 100 µM; in experiment [2] (Leishmania tarentolae, read-out: IC50, inhibition of LtP oxygen consumption), 98 ± 2 µM; in experiment [3] (setting [7]) it was 36 ± 17.6 µM; in experiment [4] (setting [8]), 197 ± 1 µM; in experiment [5] (setting [9]), > 100 µM; in experiment [6] (setting [10]), 54.8 ± 4 µM. Besides, the “Inhibition of LtP oxygen consumption (in words)” value (“Inhibition … (in words)” for short) in experiment [2] is reported as “strongly inhibited LtP oxygen consumption”.

Consider `Cc1ccc(C(C)C)cc1O` [Car, carvacrol], for which, in experiment [1], the “% of inhibition … Complex I LtP‐Mit” value was found to be 16.4%. Moreover, the 50% inhibitory concentration (IC50) was > 100 µM in experiment [1]; 11.6 ± 3.4 µM in experiment [3] (setting [7]); 421 ± 4 µM in experiment [4] (setting [8]); > 100 µM in experiment [5] (setting [9]); 150 ± 2.3 µM in experiment [6] (setting [10]). Also, in experiment [2], the “Inhibition … (in words)” value was “failed to strongly inhibit oxygen consumption”. In addition, in experiment [5], the “% of inhibition at highest concentration tested, Complex III BH‐SMP” value amounted to 22.8%.

With `CC(C)C12C=CC(C)(CC1)OO2` (stereo not drawn) [Asc, ascaridole], in experiment [1], the “% of inhibition … Complex I LtP‐Mit” value is on record as 1.1%. Moreover, the half-maximal inhibitory concentration (IC50) in experiment [1] is > 100 µM; in experiment [3] (48 h, read-out: IC50, viability of LtP), 24.5 ± 3 µM; in experiment [4] it was 381 ± 9 µM; in experiment [5], > 100 µM; in experiment [6], 131 ± 3.5 µM. Also, in experiment [2], the “Inhibition … (in words)” value is listed as “failed to strongly inhibit oxygen consumption”. The “% of inhibition at highest concentration tested, Complex III BH‐SMP” value in experiment [5] was 17.7%.

Broadly, the IC50 is the midpoint of a concentration-inhibition curve.

These data come from PMC6208284 (Phytotherapy Research, 2018).
